The record followed here is PubChem BioAssay (NCI).

Several values for one entry are separate records, joined by “and”; a condition that tells them apart may be missing. Equal entries are not always repeated.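 Step 1: Grow cells in 96-well plates. Step 2: Expose to compound for 48 hours at 5 concentrations. Step 3: Interpolate endpoints linearly; if unreached, use highest concentration. GI50 marks 50% less growth. Definition used: TGI = concentration required for complete inhibition of growth.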 Where only a bound is given, the exact number is not on record here.

Among the test systems are SF-295 CNS; OVCAR-4 ovarian; HT29 colon; UO-31 renal; MOLT-4 leukemia; SR leukemia; HCT-15 colon; SN12C renal; ACHN renal; HCT-116 colon.
Holding throughout (experiment): inhibition of tumour cell growth, NCI panel, 48 h

`COc1ccccc1/C=C/c1c(N)ncnc1Nc1cccc(Cl)c1`: the TGI in the experiment on SF-295 CNS was 65 µM; in the experiment with OVCAR-4 ovarian it was 34.4 µM; in the experiment with HT29 colon it was 87.2 µM; in the experiment with UO-31 renal it was 57.1 µM; in the experiment with MOLT-4 leukemia it was more than 100 µM; in the experiment on SR leukemia, more than 100 µM. Also, the TGI amounted to 52.5 µM in the experiment with HCT-15 colon, 30.9 µM in the experiment on SN12C renal, 26 µM in the experiment with ACHN renal and 86.8 µM in the experiment on HCT-116 colon.

As to `Cc1ccc2ccc3ccc(C)nc3c2n1`, the TGI in the experiment on SF-295 CNS, in the experiment on OVCAR-4 ovarian, in the experiment with HT29 colon, with UO-31 renal, in the experiment on MOLT-4 leukemia and with SR leukemia was more than 100 µM throughout. Besides, the TGI is more than 100 µM in the experiment with HCT-15 colon, more than 100 µM with SN12C renal, more than 100 µM in the experiment on ACHN renal and more than 44.7 µM in the experiment with HCT-116 colon.

Take `C=Cc1cc(OC)c2c(c1)c(=O)oc1c2cc(OC)c2c(O)ccc(C3OC(C)C(O)C(C)(O)C3O)c21` (stereo not drawn): the GI50 is 0.000699 µM in the experiment on SF-295 CNS; 0.00215 µM in the experiment with OVCAR-4 ovarian; 0.000815 µM in the experiment on HT29 colon; 0.00184 µM with UO-31 renal; 1.98e-05 µM in the experiment with MOLT-4 leukemia; 0.000552 µM in the experiment with HCT-15 colon. The GI50 in the experiment with SN12C renal is 0.00149 µM; in the experiment with HCT-116 colon, 0.000308 µM. The TGI in the experiment with SF-295 CNS is 0.0099 µM and 0.0593 µM; in the experiment on HT29 colon, 0.666 µM; in the experiment with SR leukemia it was 0.000187 µM; in the experiment with HCT-15 colon, 0.467 µM.

On to `O=C1C(=c2cc3c(c4ccccc24)=NC24CCCCC2C(c2ccccc2)C=C(c2ccccc2)N34)C(=O)c2ccccc21` (stereo not drawn), for which the TGI in the experiment on SF-295 CNS was more than 100 µM; with OVCAR-4 ovarian, 68.3 µM; in the experiment with HT29 colon, more than 100 µM; in the experiment with UO-31 renal, more than 100 µM; with MOLT-4 leukemia, 64.7 µM; in the experiment on SR leukemia it was 79.7 µM. In addition, the TGI with SN12C renal, with ACHN renal and with HCT-116 colon was more than 100 µM in each case.

As to `CN=C(N)/N=C(\N)Nc1cc2ccccc2c2ccccc12`, the TGI in the experiment with SF-295 CNS was 32.5 µM; in the experiment on OVCAR-4 ovarian it was 33.6 µM; in the experiment with HT29 colon, 32.9 µM; in the experiment on UO-31 renal, 27.4 µM; in the experiment with MOLT-4 leukemia it was 34 µM; in the experiment on SR leukemia, 47.8 µM. In addition, the TGI worked out at 33.4 µM with HCT-15 colon, 27.2 µM with SN12C renal, 26.3 µM with ACHN renal and 26 µM with HCT-116 colon.

`CSc1ccc(-c2cc(-c3nc4ccccc4[nH]3)nc(N)c2C#N)cc1`: the TGI with SF-295 CNS was 53 µM; in the experiment on HT29 colon it was 56.7 µM; in the experiment on MOLT-4 leukemia it was 37.1 µM; in the experiment on SR leukemia, 65.8 µM; with HCT-15 colon it was 61.9 µM; in the experiment with SN12C renal, more than 100 µM. Besides, the TGI with ACHN renal was more than 100 µM; with HCT-116 colon, 42.7 µM.

As to `C[C@H](N[C@H]1CCC[C@]1(O)C#Cc1ccc2c(c1)OCO2)c1ccccc1`, the TGI in the experiment with SF-295 CNS, in the experiment on OVCAR-4 ovarian, in the experiment with HT29 colon, with UO-31 renal, in the experiment with MOLT-4 leukemia and in the experiment with SR leukemia was more than 25 µM in each case. For the same compound, the TGI in the experiment on HCT-15 colon and with ACHN renal was more than 25 µM in each case.

With `CCCC1=C(C(=O)OCC)C(c2ccccc2OC)C(C#N)=C(N)O1` (stereo not drawn), the GI50 in the experiment on SF-295 CNS was 84 µM; in the experiment with OVCAR-4 ovarian, 65.4 µM; in the experiment on HT29 colon, 34.4 µM; with UO-31 renal, 37.5 µM; in the experiment on MOLT-4 leukemia, 26.1 µM; in the experiment on SR leukemia, 29.1 µM. Also, the GI50 in the experiment on HCT-15 colon was 50.3 µM; in the experiment with SN12C renal it was 16.6 µM; in the experiment on ACHN renal it was 48.1 µM; with HCT-116 colon, 31.8 µM. For the same compound, the TGI in the experiment with SF-295 CNS is more than 100 µM; in the experiment with OVCAR-4 ovarian, more than 100 µM; with HT29 colon, more than 100 µM; in the experiment with UO-31 renal it was more than 100 µM; in the experiment on MOLT-4 leukemia it was 89.8 µM; in the experiment with SR leukemia, more than 100 µM. For the same compound, the TGI with HCT-15 colon is more than 100 µM; in the experiment with SN12C renal, 41.4 µM; with ACHN renal, more than 100 µM; with HCT-116 colon it was more than 100 µM.

As for `C[C@@H](CO)C1=CC(C#C[Si](C)(C)C)N(C(=O)Oc2ccccc2)c2ccccc21` (stereo partly drawn), the TGI in the experiment with SF-295 CNS is 28.1 µM; with OVCAR-4 ovarian, 27 µM; in the experiment on HT29 colon, 35.2 µM; in the experiment on UO-31 renal, 30.4 µM; with MOLT-4 leukemia, more than 100 µM; in the experiment on SR leukemia, more than 100 µM. For the same compound, the TGI worked out at 21.7 µM in the experiment with HCT-15 colon, 30.9 µM in the experiment with SN12C renal, 42.1 µM in the experiment on ACHN renal and 29 µM with HCT-116 colon.

`O=C1/C(=C/c2ccc(Cl)cc2)N=C(c2ccccc2)N1c1nc2c(Cl)cc(Cl)cc2s1`: the TGI in the experiment on SF-295 CNS was more than 100 µM; in the experiment on OVCAR-4 ovarian it was more than 100 µM; in the experiment on HT29 colon it was 55.7 µM; in the experiment on UO-31 renal it was 79.8 µM; in the experiment on MOLT-4 leukemia it was 24.7 µM; with SR leukemia, 42.5 µM. In addition, the TGI in the experiment with HCT-15 colon was more than 100 µM; with SN12C renal, 57.8 µM; with ACHN renal it was more than 100 µM; in the experiment with HCT-116 colon it was 50.8 µM.

In the case of `COc1cc2c(cc1OC)C1Cc3cc(OC)c(OC)cc3C(C2)O1`, the TGI in the experiment with SF-295 CNS, with OVCAR-4 ovarian, in the experiment on HT29 colon, with UO-31 renal, in the experiment on MOLT-4 leukemia and in the experiment on SN12C renal was more than 100 µM each time. Further, the TGI in the experiment on ACHN renal and with HCT-116 colon was more than 100 µM throughout.

With `CNS(=O)(=O)c1ccc2[nH]c(O)c(C3=Nc4ccccc4C3=O)c2c1`, the TGI in the experiment with SF-295 CNS, with HT29 colon, with UO-31 renal, in the experiment on MOLT-4 leukemia, with HCT-15 colon and with SN12C renal was more than 100 µM each time. Moreover, the TGI with ACHN renal and with HCT-116 colon was more than 100 µM each time.
